Patent US20230285493A1, “ANTIMICROBIAL COMPOSITION” (Mootral SA, priority 2014, published 2023)

Columns and labels:
Experiment in all cases: modified broth dilution assay, 96-well plates (MIC)
Assay type in all cases: cell-based
Bacillus subtilis = conditions: overnight 37.0° C., absorbance 600 nm
Method: (§1) In order to determine the minimal inhibitory concentration (MIC) for the bioflavonoids (BC), allicin (AL) and ajoene (AJ) on selected Gram-positive bacteria, Gram-negative bacteria and yeast, a modified broth dilution assay using 96-well plates, according to Wiegand, Hilpert and Hancock (2008), was performed.
(§2) The microorganisms for the study were obtained from Cardiff University. The cultures used in the study were prepared by aseptic inoculation of microorganisms from pure plate cultures into 50 ml of sterile nutrient broth. The cultures were incubated overnight at 37.0° C. without agitation. Prior to use the cultures were washed by centrifugation in a desk top centrifuge at 3000 RPM for 15 minutes and the pellet resuspended in sterile saline (0.85% NaCl).
(§3) In order to determine the activity of the compounds both individually as well as in combination, a range of concentrations of each compound was used in a doubling dilution. The highest concentration used was dependent on the organism in question (whether Gram-positive bacteria, Gram-negative bacteria or yeast). From the highest concentration used in the test the samples were diluted five times in order to give six different concentrations per compound.
(§4) The allicin samples were aqueous solutions and were therefore diluted directly using H2O. However, the ajoene was in oil form and the bioflavonoids were in powder form, neither of which were water soluble. Before dilution the ajoene and bioflavonoids were solubilised by creation of a stock solution using 80% DMSO.
(§5) The wells on the 96-well plates were prepared in triplicate as follows: the AL, AJ and BC were pre-diluted in Eppendorf tubes at 10× the required final concentration. 20 μl of each dilution was added per well to give a 1:10 dilution in the final 200 μl per well. A matrix of concentrations of mixtures of allicin:bioflavonoid, ajoene:bioflavonoid and allicin:ajoene:bioflavonoid was used, with the dilution gradients of allicin and ajoene running inversely to bioflavonoids.
(§6) 130 μl of sterile nutrient broth (Nutrient Broth No. 3 (Sigma 70149)) was added to each well.
(§7) 50 μl of each microorganism suspended in saline was added to each well (except for the negative control). Each species of microorganism was added to two plates, the first for the individual (control) assays and the second for the matrix study. The plates were incubated at 37.0° C. overnight without agitation.
(§8) The plates were scanned individually using a Tecan plate reader at 600 nm and the absorbance recorded in a comma-delimited file for analysis.
(§9) The absorbance for each sample was compared to the growth (absorbance) of the control cultures (without treatment) in order to determine the MIC (all values blanked against negative control to negate absorbance of plate and broth). The mean and standard deviation of the triplicate experiments were determined and the means plotted on scatter diagrams for comparison.

Candida tropicalis = conditions: overnight 37.0° C., absorbance 600 nm
Method: as §1, §2, §3, §4, §5, §6, §7, §8, §9

Escherichia coli = conditions: overnight 37.0° C., absorbance 600 nm
Method: as §1, §2, §3, §4, §5, §6, §7, §8, §9

Klebsiella pneumonia = conditions: Klebsiella pneumoniae, overnight 37.0° C., absorbance 600 nm
Method: as §1, §2, §3, §4, §5, §6, §7, §8, §9

Pseudomonas aeruginosa = conditions: overnight 37.0° C., absorbance 600 nm
Method: as §1, §2, §3, §4, §5, §6, §7, §8, §9

Staphylococcus aureus = conditions: overnight 37.0° C., absorbance 600 nm
Method: as §1, §2, §3, §4, §5, §6, §7, §8, §9

| MIC (Bacillus subtilis) [µg/mL] | MIC (Candida tropicalis) [µg/mL] | MIC (Escherichia coli) [µg/mL] | MIC (Klebsiella pneumonia) [µg/mL] | MIC (Pseudomonas aeruginosa) [µg/mL] | MIC (Staphylococcus aureus) [µg/mL] | SMILES |
| --- | --- | --- | --- | --- | --- | --- |
| 24 | 24 | 24 | 12 | 12 | 48 | C=CCSSC=CC[S+]([O-])CC=C (mixture of isomers) [Ajoene, (E,Z)-4,5,9-trithiadodeca-1,6,11-triene 9-oxide] |
| 9.2 | 9.2 | 18.4 | 46 | 9.2 | 27.6 | C=CCS[S+]([O-])CC=C (stereo not drawn) [Allicin, 2-Propene-1-sulfinothioic acid S-2-propenyl] |
